Patent US20090069320A1, “Substituted 4-Amino-Quinazoline Compounds with Metabotropic Glutamate Receptor Regulating Activity and Uses Thereof” (Gruenenthal GmbH, priority 2006, published 2009)
Structures can show the parent of a compound that is named as a salt.

Legend:
mGluR5 receptor (human) = biological target: T1, mGluR5 receptor (human) (Homo sapiens, UniProt P41594); assay: Functional Ca2+ influx assay in CHO-hmGluR5 cells (DHPG 10 μM, FLIPR); type: cell-based
T1 construct: host or cells: CHO
Method: V. Functional Ca^2+ Influx Assay
20,000 CHO-hmGluR5 cells/well (Euroscreen, Gosselies, Belgium) are pipetted into 96-well plates (BD Biosciences, Heidelberg, Germany, Ref. 356640, clear bottom, 96-well, poly-D-lysine) and incubated overnight in HBSS buffer (Gibco 14025-050) with the following additions: 10% FCS (GIBCO, 10270-106) and doxycycline (BD Biosciences Clontech 631311 600 ng/ml).
For the functional study the cells were charged with 2 μM of Fluo-4 and 0.01% by vol. pluronic F127 (Molecular Probes Europe BV, Leiden, The Netherlands) in HBSS buffer (Hank's buffered saline solution, Gibco Invitrogen GmbH, Karlsruhe, Germany) with probenicide (Sigma P8761, […]) for 30 min. at 37° C.
The cells are then washed 3 times with washing buffer (HBSS buffer, Gibco No. 14025-050), with probenicide (Sigma P8761, 0.69 mg/ml) and then taken up with the same buffer ad 100 μl. After 15 min. the plates for determining the Ca^2+ measurements in the presence of DHPG ((S)-3,5-dihydroxyphenylglycine, Tocris Biotrend Chemikalien GmbH, Cologne, Germany, final DHPG concentration: 10 μM) and also in the presence or absence of test substances are transferred into a fluorometric imaging plate reader (FLIPR, Molecular Devices, Sunnyvale, Calif.).
The Ca^2+-dependent fluorescence is measured before and after the addition of test substances. The quantification occurs through the measurement of the highest fluorescence intensity over time. After the fluorescence base line has been recorded for 10 sec. 50 μl of test substance solution (different test substance concentrations in HBSS buffer with 1% DMSO and 0.02% Tween 20, Sigma) are added and the fluorescence signal is measured for 6 min. 50 μl of DHPG solution ((S)-3,5-dihydroxyphenylglycine, Tocris Biotrend Chemikalien GmbH, Cologne, Germany, final DHPG concentration: 10 μM) are then added and the influx of Ca^2+ is measured simultaneously for 60 sec. The final DMSO concentration amounts to 0.25% and the final Tween 20 content amounts to 0.005%. The data are analysed with Microsoft Excel and GraphPad Prism. The dose effect curves are calculated with non-linear regression and IC50 values determined. Each data point is determined 3 times and IC50 values are averaged from a minimum of 2 independent measurements. Ki values are calculated according to the following formula:
Ki=IC50/(1+(AGconc./EC50)).
AGconc.=10 μM; EC50 corresponds to the DHPG concentration necessary for the half-maximum influx of Ca^2+.

mGluR5 receptor = biological target: T2, mGluR5 receptor (Sus scrofa, UniProt I3LUI7); assay: [3H]-MPEP mGluR5 receptor binding assay (pig brain homogenate); conditions: 5 nM [3H]-MPEP; for IC50: read-out: IC50 mGluR5 Receptor (pig) [^3H]-MPEP Bond; for inhibition at 10 µM: 10 μM compound, read-out: % Inhibition of mGluR5 Receptor (pig) [^3H]-MPEP Bond at 10 μM
T2 construct: 450 μg of protein from brain homogenate with 5 nM ^3[H]-MPEP; from tissue; host or cells: pig brain halves without medulla, cerebellum and pons
How it was run: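 Compounds at 10 μM competed with 5 nM [3H]-MPEP for binding to pig brain membranes (450 μg protein) for 60 min at room temperature in pH 8.0 Hepes buffer. Bound radioactivity was collected on glass-fibre filters and read by β-counting, with 10 μM unlabelled MPEP giving non-specific binding.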

T2 sequence (I3LUI7 19-1212): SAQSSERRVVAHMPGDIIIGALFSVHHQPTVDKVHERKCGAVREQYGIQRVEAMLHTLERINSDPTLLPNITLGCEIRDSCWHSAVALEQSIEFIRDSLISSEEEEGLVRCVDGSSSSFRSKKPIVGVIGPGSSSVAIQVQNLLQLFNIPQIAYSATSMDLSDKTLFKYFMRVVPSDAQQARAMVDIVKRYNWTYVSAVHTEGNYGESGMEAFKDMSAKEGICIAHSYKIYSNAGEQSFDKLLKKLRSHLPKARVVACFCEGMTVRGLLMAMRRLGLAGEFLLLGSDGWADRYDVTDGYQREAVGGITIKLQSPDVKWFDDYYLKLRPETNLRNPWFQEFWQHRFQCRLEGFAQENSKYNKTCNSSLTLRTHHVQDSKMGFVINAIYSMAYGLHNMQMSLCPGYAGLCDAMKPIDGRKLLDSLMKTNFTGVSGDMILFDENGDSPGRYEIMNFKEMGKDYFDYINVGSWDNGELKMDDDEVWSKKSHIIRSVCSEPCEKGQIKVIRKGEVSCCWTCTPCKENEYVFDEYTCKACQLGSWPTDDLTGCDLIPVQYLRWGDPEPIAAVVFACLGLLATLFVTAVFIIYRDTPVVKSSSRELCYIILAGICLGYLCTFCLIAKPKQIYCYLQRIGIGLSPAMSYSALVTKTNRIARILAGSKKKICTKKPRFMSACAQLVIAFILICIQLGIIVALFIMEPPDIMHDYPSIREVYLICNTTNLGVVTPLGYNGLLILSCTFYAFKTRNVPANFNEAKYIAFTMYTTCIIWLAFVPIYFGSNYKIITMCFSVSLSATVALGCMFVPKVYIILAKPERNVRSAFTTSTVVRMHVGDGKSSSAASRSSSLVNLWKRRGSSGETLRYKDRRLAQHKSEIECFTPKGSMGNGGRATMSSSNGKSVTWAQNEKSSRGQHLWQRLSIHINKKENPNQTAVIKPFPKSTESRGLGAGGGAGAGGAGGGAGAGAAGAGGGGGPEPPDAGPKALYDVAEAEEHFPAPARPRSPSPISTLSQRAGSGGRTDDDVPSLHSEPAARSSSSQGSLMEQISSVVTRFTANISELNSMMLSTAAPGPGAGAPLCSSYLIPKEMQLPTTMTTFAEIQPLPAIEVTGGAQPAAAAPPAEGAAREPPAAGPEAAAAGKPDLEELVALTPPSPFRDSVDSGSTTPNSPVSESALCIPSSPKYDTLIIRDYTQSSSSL
T1 sequence (P41594 21-1212): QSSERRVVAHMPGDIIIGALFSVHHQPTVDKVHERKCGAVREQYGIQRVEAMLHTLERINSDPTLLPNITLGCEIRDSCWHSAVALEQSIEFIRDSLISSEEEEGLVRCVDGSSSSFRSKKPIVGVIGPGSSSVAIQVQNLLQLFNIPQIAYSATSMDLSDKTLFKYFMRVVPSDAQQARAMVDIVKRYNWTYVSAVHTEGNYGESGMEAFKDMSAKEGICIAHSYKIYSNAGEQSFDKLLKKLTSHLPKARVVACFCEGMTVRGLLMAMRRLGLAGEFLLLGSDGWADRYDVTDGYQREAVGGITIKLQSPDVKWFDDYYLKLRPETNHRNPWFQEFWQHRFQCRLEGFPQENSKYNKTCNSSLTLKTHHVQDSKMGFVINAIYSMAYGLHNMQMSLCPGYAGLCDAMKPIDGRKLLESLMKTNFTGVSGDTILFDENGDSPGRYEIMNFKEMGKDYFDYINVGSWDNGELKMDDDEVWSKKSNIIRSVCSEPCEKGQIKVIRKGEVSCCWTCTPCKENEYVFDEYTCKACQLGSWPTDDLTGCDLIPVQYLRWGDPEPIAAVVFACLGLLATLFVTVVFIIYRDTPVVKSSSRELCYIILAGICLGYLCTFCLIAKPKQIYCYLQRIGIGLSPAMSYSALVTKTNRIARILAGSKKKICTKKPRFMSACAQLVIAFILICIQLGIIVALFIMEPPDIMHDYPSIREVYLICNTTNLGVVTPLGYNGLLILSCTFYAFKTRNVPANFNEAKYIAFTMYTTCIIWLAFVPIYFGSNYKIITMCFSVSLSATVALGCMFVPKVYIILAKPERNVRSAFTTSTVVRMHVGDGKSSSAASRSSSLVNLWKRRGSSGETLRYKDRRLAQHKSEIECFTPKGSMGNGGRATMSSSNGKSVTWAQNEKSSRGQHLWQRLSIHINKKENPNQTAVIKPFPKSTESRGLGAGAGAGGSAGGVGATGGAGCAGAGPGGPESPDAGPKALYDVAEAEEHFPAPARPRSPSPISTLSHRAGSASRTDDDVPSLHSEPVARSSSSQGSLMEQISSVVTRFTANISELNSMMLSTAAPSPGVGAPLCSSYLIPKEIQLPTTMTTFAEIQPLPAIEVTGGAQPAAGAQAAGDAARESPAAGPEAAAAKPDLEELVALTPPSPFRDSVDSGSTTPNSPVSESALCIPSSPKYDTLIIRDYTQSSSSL

Structure (SMILES)	Ki (mGluR5 receptor (human))	IC50 (mGluR5 receptor)	inhibition at 10 µM (mGluR5 receptor)
O=C(c1ccccc1)N(Cc1cccc(-c2ccc3ncnc(N4CCCC4)c3c2)c1)C1CC1 [Example 121, N-cyclopropyl-N-[3-(4-pyrrolidin-1-yl-quinazolin-6-yl)-benzyl]-benzamide]	7.5 nM	–	–
CC(C)(C)Nc1ncnc2ccc(-c3cccc(CN4C(=O)CCC4=O)c3)cc12 [Example 196, 1-[3-(4-tert-butylamino-quinazolin-6-yl)-benzyl]-pyrrolidine-2,5-dione hydrochloride]	4.7 nM	90 nM	–
CC(=O)N(Cc1cccc(-c2ccc3ncnc(NC4CC4)c3c2)c1)C(C)(C)C [Example 202, N-tert-butyl-N-[3-(4-cyclopropylamino-quinazolin-6-yl)-benzyl]-acetamide]	3.3 nM	–	55%
N#CCC(=O)N(Cc1cccc(-c2ccc3ncnc(NC4CC4)c3c2)c1)C1CC1 [Example 211, 2-cyano-N-cyclopropyl-N-[3-(4-cyclopropylamino-quinazolin-6-yl)-benzyl]-acetamide]	8.4 nM	70 nM	–
CC1CC(=O)N(Cc2cccc(-c3ccc4ncnc(NC5CC5)c4c3)c2)C1=O (stereo not shown) [Example 245, 1-[3-(4-cyclopropylamino-quinazolin-6-yl)-benzyl]-3-methyl-pyrrolidine-2,5-dione]	5.2 nM	140 nM	–
COc1ccc(CN(C2CC2)S(C)(=O)=O)cc1-c1ccc2ncnc(NC3CC3)c2c1 [Example 250, N-cyclopropyl-N-(3-(4-(cyclopropylamino)quinazolin-6-yl)-4-methoxybenzyl)methane sulfonamide]	5 nM	120 nM	–
O=C1CCC(=O)N1Cc1cccc(-c2ccc3ncnc(NC4CC4)c3c2)c1 [Example 258, 1-[3-(4-cyclopropylamino-quinazolin-6-yl)-benzyl]-pyrrolidine-2,5-dione]	3.9 nM	50 nM	–
COc1ccc(CN(C(C)=O)C2CC2)cc1-c1ccc2ncnc(NC3CC3)c2c1 [Example 261, N-cyclopropyl-N-[3-(4-cyclopropylamino-quinazolin-6-yl)-4-methoxy-benzyl]-acetamide]	39 nM	200 nM	–
CC(=O)N(Cc1cc(-c2ccc3ncnc(NC4CC4)c3c2)cs1)C1CC1 [Example 262, N-cyclopropyl-N-[4-(4-cyclopropylamino-quinazolin-6-yl)-thiophen-2-ylmethyl]-acetamide]	5.9 nM	110 nM	–
O=C(c1ccccc1)N(Cc1cc(-c2ccc3ncnc(NC4CC4)c3c2)ccc1F)C1CC1 [Example 269, N-cyclopropyl-N-(5-(4-(cyclopropylamino)quinazolin-6-yl)-2-fluorobenzyl)benzamide]	8 nM	280 nM	–
CS(=O)(=O)N(Cc1cccc(-c2ccc3ncnc(NC4CC4)c3c2)c1)C1CC1 [Example 270, N-cyclopropyl-N-(3-(4-(cyclopropylamino)quinazolin-6-yl)benzyl)methane sulfonamide]	12 nM	280 nM	–
CC(=O)N(Cc1cccc(-c2ccc3ncnc(NC4CC4)c3c2)c1)C1CC1 [Example 271, N-cyclopropyl-N-(3-(4-(cyclopropylamino)quinazolin-6-yl)benzyl)acetamide]	8.2 nM	140 nM	–
O=C(N(Cc1cccc(-c2ccc3ncnc(NC4CC4)c3c2)c1)C1CC1)C(F)(F)F [Example 273, N-cyclopropyl-N-(3-(4-(cyclopropylamino)quinazolin-6-yl)benzyl)-2,2,2-trifluoroacetamide]	1.7 nM	30 nM	–
CCOC(=O)N(Cc1cccc(-c2ccc3ncnc(NC4CC4)c3c2)c1)C1CC1 [Example 875, ethyl cyclopropyl(3-(4-(cyclopropylamino)quinazolin-6-yl)benzyl)carbamate]	51.1 nM	40 nM	–
O=C1CCC(=O)N1Cc1cccc(-c2cc3c(NC4CC4)ncnc3cc2F)c1 [Example 882, 1-(3-(4-(cyclopropylamino)-7-fluoroquinazolin-6-yl)benzyl)pyrrolidine-2,5-dione]	2.7 nM	70 nM	–
CN(Cc1cccc(-c2ccc3ncnc(NC4CC4)c3c2)c1)C1CC1 [Example 891, N-cyclopropyl-6-(3-((cyclopropyl(methyl)amino)methyl)phenyl)quinazoline-4-amine]	–	5600 nM	–
c1cc(CN(c2nccs2)C2CC2)cc(-c2ccc3ncnc(NC4CC4)c3c2)c1 [Example 892, N-cyclopropyl-N-(3-(4-(cyclopropylamino)quinazolin-6-yl)benzyl)thiazole-2-amine]	–	80 nM	–
CC(=O)N(Cc1cccc(-c2ccc3ncnc(NC4CC4)c3c2)c1)C1CCC1 [Example 893, N-cyclobutyl-N-(3-(4-(cyclopropylamino)quinazolin-6-yl)benzyl)acetamide]	–	3210 nM	–
CCN(Cc1cccc(-c2ccc3ncnc(NC4CC4)c3c2)c1)C(C)=O [Example 894, N-(3-(4-(cyclopropylamino)quinazolin-6-yl)benzyl)-N-ethylacetamide]	–	1000 nM	–
O=C1CCC(=O)N1Cc1ccc(F)c(-c2ccc3ncnc(NC4CC4)c3c2)c1 [Example 895, 1-(3-(4-(cyclopropylamino)quinazolin-6-yl)-4-fluorobenzyl)pyrrolidine-2,5-dione]	–	–	72%
CC(=O)N(Cc1ccc(F)c(-c2ccc3ncnc(NC4CC4)c3c2)c1)C1CC1 [Example 896, N-cyclopropyl-N-(3-(4-(cyclopropylamino)quinazolin-6-yl)-4-fluorobenzyl)acetamide]	–	–	78%
CC(=O)N(Cc1cc(F)cc(-c2ccc3ncnc(NC4CC4)c3c2)c1)C1CC1 [Example 897, N-cyclopropyl-N-(3-(4-(cyclopropylamino)quinazolin-6-yl)-5-fluorobenzyl)acetamide]	–	20 nM	–
COC(=O)N(Cc1cccc(-c2ccc3ncnc(NC4CC4)c3c2)c1)C1CC1 [Example 898, methyl cyclopropyl(3-(4-(cyclopropylamino)quinazolin-6-yl)benzyl)carbamate]	–	90 nM	–
COc1cc2ncnc(NC3CC3)c2cc1-c1cccc(CN2C(=O)CCC2=O)c1 [Example 899, 1-(3-(4-(cyclopropylamino)-7-methoxyquinazolin-6-yl)benzyl)pyrrolidine-2,5-dione]	–	160 nM	–
N#CCC(=O)N(Cc1ccc(F)c(-c2ccc3ncnc(NC4CC4)c3c2)c1)C1CC1 [Example 900, 2-cyano-N-cyclopropyl-N-(3-(4-(cyclopropylamino)quinazolin-6-yl)-4-fluorobenzyl)acetamide]	–	–	81%
CN(c1ncnc2ccc(-c3cccc(CN4C(=O)CCC4=O)c3)cc12)C1CC1 [Example 901, 1-(3-(4-(cyclopropyl(methyl)amino)quinazolin-6-yl)benzyl)pyrrolidine-2,5-dione]	–	–	40%
N#CCC(=O)N(Cc1cc(F)cc(-c2ccc3ncnc(NC4CC4)c3c2)c1)C1CC1 [Example 902, 2-cyano-N-cyclopropyl-N-(3-(4-(cyclopropylamino)quinazolin-6-yl)-5-fluorobenzyl)acetamide]	–	–	92%
CC(=O)N(Cc1nc(-c2ccc3ncnc(NC4CC4)c3c2)cs1)C1CC1 [Example 903, N-cyclopropyl-N-((4-(4-(cyclopropylamino)quinazolin-6-yl)thiazole-2-yl)methyl)acetamide]	–	–	87%
O=C1CCC(=O)N1Cc1cccc(-c2ccc3ncnc(NC4CC4)c3c2F)c1 [Example 904, 1-(3-(4-(cyclopropylamino)-5-fluoroquinazolin-6-yl)benzyl)pyrrolidine-2,5-dione]	–	220 nM	–
